Test results taken from patent publication US8916574B2, “4-(substituted anilino)-quinazoline derivatives useful as tyrosine kinase inhibitors” (Qilu Pharmaceutical Co., Ltd., priority 2009, dated 2014).
Like-named read-outs stand apart in the source and are kept apart here.

Key:
[1] = target: Her2 receptor tyrosine kinase (Homo sapiens (Human), UniProt P04626); test: In vitro kinase analysis, HTScan HER2/ErbB2 Kinase Assay Kit (substrate peptide phosphorylation); format: biochemical
Description: (§1) Operation steps refer to the specification of the used kits, and the method was used to measure the inhibition effects of the compound to be tested on substrate peptide phosphorylation of EGFR or Her2 receptor tyrosine kinase. At room temperature, ATP and substrate peptide as well as the compound to be tested were incubated in kinase reaction buffer, after a period of incubation, a stop buffer was added to terminate the reaction and the sample was transferred to a streptavidin-coated 96-well plate, the plate was washed and the phosphorylation level of substrate peptide was detected by using HRP-marked antibody against substrate phosphorylation, colorated with TMB, terminated the reaction with 2M sulfuric acid. Absorption at 450 nm wavelength was detected, and IC50 value (μM) was calculated.

[2] = target: EGFR receptor tyrosine kinase (Homo sapiens (Human), UniProt P00533); test: In vitro kinase analysis, HTScan EGF Receptor Kinase Assay Kit (substrate peptide phosphorylation); format: biochemical
EGFR receptor tyrosine kinase, sequence (P00533 25-1210): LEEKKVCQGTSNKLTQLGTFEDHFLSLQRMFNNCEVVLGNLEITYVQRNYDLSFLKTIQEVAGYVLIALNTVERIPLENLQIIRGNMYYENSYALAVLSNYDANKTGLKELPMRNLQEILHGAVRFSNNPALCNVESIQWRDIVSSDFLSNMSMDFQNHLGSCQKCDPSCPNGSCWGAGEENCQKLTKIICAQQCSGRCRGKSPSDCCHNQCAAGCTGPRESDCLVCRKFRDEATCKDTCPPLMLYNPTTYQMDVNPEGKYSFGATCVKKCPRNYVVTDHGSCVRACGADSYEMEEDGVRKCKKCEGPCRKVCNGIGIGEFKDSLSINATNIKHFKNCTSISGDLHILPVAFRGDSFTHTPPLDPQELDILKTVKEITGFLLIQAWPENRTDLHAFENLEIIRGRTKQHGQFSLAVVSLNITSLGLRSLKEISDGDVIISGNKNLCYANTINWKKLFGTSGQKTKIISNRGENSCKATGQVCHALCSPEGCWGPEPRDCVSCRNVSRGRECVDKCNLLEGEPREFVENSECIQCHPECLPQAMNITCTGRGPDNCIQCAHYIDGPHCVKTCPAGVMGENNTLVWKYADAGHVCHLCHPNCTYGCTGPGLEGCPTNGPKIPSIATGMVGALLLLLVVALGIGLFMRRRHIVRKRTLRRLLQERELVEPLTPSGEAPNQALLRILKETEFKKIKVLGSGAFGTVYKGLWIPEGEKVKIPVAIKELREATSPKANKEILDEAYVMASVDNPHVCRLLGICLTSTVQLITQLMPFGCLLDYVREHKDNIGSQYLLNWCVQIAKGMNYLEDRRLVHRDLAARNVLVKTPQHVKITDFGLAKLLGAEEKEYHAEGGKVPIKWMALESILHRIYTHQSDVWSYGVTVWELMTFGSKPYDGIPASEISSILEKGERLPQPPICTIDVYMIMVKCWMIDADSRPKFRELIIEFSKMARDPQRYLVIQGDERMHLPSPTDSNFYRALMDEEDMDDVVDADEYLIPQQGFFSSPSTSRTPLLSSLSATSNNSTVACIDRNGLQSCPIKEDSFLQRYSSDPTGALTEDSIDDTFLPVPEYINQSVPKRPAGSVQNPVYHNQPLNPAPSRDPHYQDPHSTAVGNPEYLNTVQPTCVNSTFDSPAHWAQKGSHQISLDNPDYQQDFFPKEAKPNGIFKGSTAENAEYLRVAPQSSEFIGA
Description: as §1

[3] = target: hERG potassium currents (IKr) (Homo sapiens (Human), UniProt Q12809); test: hERG potassium currents, whole cell patch clamp in transfected HEK293 cells; format: cell-based; settings: HEK293 cells transfected with hERG cDNA
hERG potassium currents (IKr), sequence (Q12809 whole entry): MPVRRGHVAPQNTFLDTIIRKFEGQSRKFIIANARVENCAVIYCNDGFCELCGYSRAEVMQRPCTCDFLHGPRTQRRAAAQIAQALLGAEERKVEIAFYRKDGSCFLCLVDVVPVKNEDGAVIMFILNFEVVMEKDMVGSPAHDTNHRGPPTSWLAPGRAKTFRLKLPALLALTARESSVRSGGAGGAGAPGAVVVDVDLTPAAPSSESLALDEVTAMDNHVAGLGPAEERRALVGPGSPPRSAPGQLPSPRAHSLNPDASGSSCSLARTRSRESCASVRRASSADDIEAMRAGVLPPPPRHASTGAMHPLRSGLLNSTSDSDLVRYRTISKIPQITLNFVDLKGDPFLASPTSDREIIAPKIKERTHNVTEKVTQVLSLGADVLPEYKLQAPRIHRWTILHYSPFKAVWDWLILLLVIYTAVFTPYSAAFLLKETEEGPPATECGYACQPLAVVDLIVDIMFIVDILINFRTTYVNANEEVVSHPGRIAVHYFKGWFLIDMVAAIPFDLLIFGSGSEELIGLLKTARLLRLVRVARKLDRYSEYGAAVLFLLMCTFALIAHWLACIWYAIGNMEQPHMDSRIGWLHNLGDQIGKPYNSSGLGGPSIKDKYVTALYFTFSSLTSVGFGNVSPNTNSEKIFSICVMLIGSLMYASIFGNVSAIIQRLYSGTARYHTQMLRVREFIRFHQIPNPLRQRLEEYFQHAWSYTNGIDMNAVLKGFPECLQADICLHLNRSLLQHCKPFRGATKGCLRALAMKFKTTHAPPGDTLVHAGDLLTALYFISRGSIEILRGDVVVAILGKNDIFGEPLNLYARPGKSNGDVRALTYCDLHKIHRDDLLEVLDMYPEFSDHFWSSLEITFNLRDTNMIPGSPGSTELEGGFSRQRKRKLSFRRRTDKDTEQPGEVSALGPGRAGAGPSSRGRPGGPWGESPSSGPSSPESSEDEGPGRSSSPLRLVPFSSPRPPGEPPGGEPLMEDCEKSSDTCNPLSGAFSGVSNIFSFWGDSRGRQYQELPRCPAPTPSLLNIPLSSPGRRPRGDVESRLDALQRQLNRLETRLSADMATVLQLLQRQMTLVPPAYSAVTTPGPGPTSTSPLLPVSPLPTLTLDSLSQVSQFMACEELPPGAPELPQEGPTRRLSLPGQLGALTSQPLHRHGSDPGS

[4] = Pharmacokinetics in SD rats after a single intragastric dose; format: in vivo; settings: 100 mg/kg intragastric single dose, plasma
Description: The animals were fasted for 12 h before test, drinking water freely. And fed after 2 h of administration. At 0.25, 0.5, 1.0, 2.0, 3.0, 5.0, 7.0, 9.0, 12 and 24 h after administration, 0.3 ml blood samples were taken from venous plexus behind eyeball of rats into heparinized test tubes, then centrifuged at 11000 rpm for 5 min, plasma were separated, and preserved at […]. The concentrations of drug in original form and metabolites thereof in plasma were measured by liquid chromatography-mass spectrometry.

[5] = test system: human ovarian cancer SK-OV-3 transplanted tumor; test: Tumor inhibition at different dosages, SK-OV-3 transplanted tumor in nude mice; format: in vivo, BALB/cA-nude mice; settings: once per day, 21 days; for Animal number in each group: Partial regression: of 6 animals
From the text: (§2) BALB/cA-nude mice, female, 4-6 weeks, body weight 22±2 g, were purchased from Shanghai SLAC Laboratory Animal Co. Ltd, raised in SPF grade environment.
(§3) In vitro cultured NCI-N87 cells were subcutaneously inoculated at right axillary fossa of nude mice, each was inoculated with about 5×10^6 cells, and passaged twice in vivo after tumor formation. Under sterile conditions, eugonic tumor tissues were cut into tumor pieces of about 1.5 mm^3, and inoculated at right axillary fossa of nude mice. Tumor diameters were measured by vernier caliper, the animals were randomly divided (d0) after the tumors grew to 100-200 mm^3. […] During administration period, the body weight of mice and the diameter of tumors were measured 3 times per week. The tumor volume and relative tumor volume were calculated according to the measured data, the formulation for calculating tumor volume (TV) is: TV=½×a×b^2, wherein a, b represent major diameter and minor diameter of tumor; the formulation for calculating relative tumor volume (RTV) is: RTV=Vt/V0, wherein V0 is the tumor volume measured when dividing groups for administration (i.e., d0), Vt is tumor volume measured each time. […] The formulation for calculating relative tumor inhibition rate is: 1−T/C (%).
Nude mice were subcutaneously inoculated with human ovarian cancer SK-OV-3 cells, after tumors grew to 60-150 mm^3, the animals were randomly divided into groups (d0). […] The tumor volume, and body weight of mice were measured 3 times per week, and all data were recorded. The tumor volume, relative tumor inhibition rate and so on were calculated according to the aforementioned methods.

[6] = test system: human gastric cancer cell line NCI-N87; test: Test of cell proliferation inhibition (SRB), N87; format: cell-based; settings: for IC50: Homo sapiens, NCI-N87, 72 h, read-out: Test of cell proliferation inhibition IC50 N87
Description: (§4) The test was performed by referring to the method as described by Rusnak et al., Cell Prolif, 2007, 40, 580-594. The test of cell proliferation inhibition used human breast cancer cells BT474 and human gastric cancer cell line NCI-N87, BT474 over-expressing Her2 receptor, N87 over-expressing EGFR and Her2 receptor.
(§5) In a Dulbecco Modified Eagle Medium (DMEM) comprising 10% fetal bovine serum, 2 mM glutamine and non-essential amino acids, cells were cultured at 37° C. in 5% CO2 cell incubator, and trypsin/ethylenediamine tetraacetic acid (EDTA) were used to harvest cells in cell culture bottle. […] The change of cell form was observed under microscope, then 50 μl 50% (mass/volume)trichloroacetic acid (TCA) was added to per well to fix cells. The final concentration of TCA was 10%, standing for 5 min and placing in 4° C. refrigerator for 1 h, the wells of the culture plate were washed with deionized water for 5 times to remove TCA, drained, dried in air until no wet trace was observed. 100 μl of 0.4% (mass/volume) SRB was added to each well, stood at room temperature for 10 min, the liquid in each well was discarded, then the wells were washed with 1% acetic acid for 5 times, dried in air, extracted with 150 μl of 10 mM Tris base (trihydroxymethylaminomethane, pH 10.5), the absorption at 540 nm wavelength was detected.

[7] = test system: human breast cancer cells BT474; test: Test of cell proliferation inhibition (SRB), BT474; format: cell-based; settings: BT-474, 72 h
Description: as §4, §5

[8] = test system: human gastric cancer NCI-N87 transplanted tumor; test: Tumor inhibition at a single dose, NCI-N87 transplanted tumor in nude mice; format: in vivo, BALB/cA-nude mice; settings: 200 mg/kg intragastrically, once per day, 28 days; for Rate of tumor inhibition d21 (%): head prints d21; for d28 Vave (tumor volume): in mm³; for Animal number in each group: Partial regression: of 6 animals
From the text: as §2, §3

[9] = test system: human ovarian cancer SK-OV-3 transplanted tumor; test: Tumor inhibition at a single dose, SK-OV-3 transplanted tumor in nude mice; format: in vivo, BALB/cA-nude mice; settings: 200 mg/kg intragastrically, once per day, 21 days; for Animal number in each group: Partial regression: of 6 animals
From the text: as §2, §3
Nude mice were subcutaneously inoculated with human ovarian cancer SK-OV-3 cells, after tumors grew to 60-150 mm^3, the animals were randomly divided into groups (d0). […] During the administration period, the body weight of mice and the diameter of tumor were measured 3 times per week. The tumor volume, relative tumor inhibition rate and so on were calculated according to the aforementioned methods.

Her2 receptor tyrosine kinase, sequence (P04626 23-1255): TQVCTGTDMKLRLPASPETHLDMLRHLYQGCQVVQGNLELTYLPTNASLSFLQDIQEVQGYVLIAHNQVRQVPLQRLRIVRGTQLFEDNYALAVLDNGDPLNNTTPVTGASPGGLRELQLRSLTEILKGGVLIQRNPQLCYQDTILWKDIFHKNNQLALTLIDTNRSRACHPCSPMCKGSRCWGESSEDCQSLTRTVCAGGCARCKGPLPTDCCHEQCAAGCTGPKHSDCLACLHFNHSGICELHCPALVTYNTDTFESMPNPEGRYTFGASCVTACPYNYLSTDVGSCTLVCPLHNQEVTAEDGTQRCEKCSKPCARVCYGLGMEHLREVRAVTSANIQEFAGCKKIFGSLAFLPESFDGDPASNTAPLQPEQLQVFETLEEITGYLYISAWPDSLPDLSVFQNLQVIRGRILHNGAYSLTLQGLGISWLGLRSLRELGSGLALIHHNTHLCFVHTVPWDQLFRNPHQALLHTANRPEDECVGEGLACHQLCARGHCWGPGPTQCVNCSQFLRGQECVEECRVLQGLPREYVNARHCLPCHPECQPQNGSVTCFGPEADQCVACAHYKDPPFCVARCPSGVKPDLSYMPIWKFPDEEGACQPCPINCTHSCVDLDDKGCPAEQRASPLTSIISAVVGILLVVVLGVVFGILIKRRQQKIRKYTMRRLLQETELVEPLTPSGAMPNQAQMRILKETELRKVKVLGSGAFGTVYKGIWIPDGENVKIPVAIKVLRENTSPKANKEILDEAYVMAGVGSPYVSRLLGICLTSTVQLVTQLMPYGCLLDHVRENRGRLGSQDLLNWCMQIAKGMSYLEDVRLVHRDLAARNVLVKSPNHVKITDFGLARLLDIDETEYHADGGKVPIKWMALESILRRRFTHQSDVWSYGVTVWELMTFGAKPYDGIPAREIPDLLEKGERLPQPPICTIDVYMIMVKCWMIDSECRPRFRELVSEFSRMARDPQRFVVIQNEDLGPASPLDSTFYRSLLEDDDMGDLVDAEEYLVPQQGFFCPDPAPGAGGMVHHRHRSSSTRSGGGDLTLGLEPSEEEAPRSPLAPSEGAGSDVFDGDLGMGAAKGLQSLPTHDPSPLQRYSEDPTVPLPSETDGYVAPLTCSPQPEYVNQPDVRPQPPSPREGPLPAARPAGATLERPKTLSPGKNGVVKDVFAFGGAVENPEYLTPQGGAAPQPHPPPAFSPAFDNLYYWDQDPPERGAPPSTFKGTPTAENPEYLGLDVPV

SMILES | IC50 [1] [nM] | IC50 [2] [nM] | IC50 [6] [nM] | IC50 [7] [nM] | Rate of tumor inhibition d21 (%) [8] [%] | d28 Vave (tumor volume) [8] | Animal number in each group: Partial regression [8] | Rate of tumor inhibition d21 (%) [9] [%] | d21 Vave (tumor volume) [9] [mm^3] | Animal number in each group: Partial regression [9] | also measured
NS(=O)(=O)CCNCc1ccc(-c2ccc3ncnc(Nc4ccc(OCc5cccc(F)c5)c(Cl)c4)c3c2)o1 [Compound 1, N-(4-(3-fluorobenzyloxy)-3-chlorophenyl)-6-(5-((2-(sulfamoyl)ethylamino)methyl)-2-furyl)-quinazolin-4-amine] | 1.55 |  |  |  |  |  |  |  |  |  | 
C[S+]([O-])CCNCc1ccc(-c2ccc3ncnc(Nc4ccc(OCc5cccc(F)c5)c(Cl)c4)c3c2)o1 (centres unmarked) [Compound 2, N-(4-(3-fluorobenzyloxy)-3-chlorophenyl)-6-(5-((2-(methylsulfinyl)ethylamino)methyl)-2-furyl)-quinazolin-4-amine] |  | 52.7 |  |  |  |  |  |  |  |  | IC50 ([3]; read-out: semi-effective inhibition dose IC50 for IKr pulse current): 10.1 ± 0.96 µM; IC50 ([3]; read-out: semi-effective inhibition dose IC50 for tail current): ~9.24 µM; AUC0-t ± SD [4]: 50299 ± 12863 ng·h/mL; AUC0-∞ ± SD [4]: 53236 ± 12248 ng·h/mL; Cmax ± SD [4]: 8881 ± 2061 ng/mL; MRT ± SD [4]: 5.38 ± 0.59 h; T1/2 ± SD [4]: 2.32 ± 0.5 h; Tmax ± SD [4]: 3.5 ± 1.0 h
CSCCNCc1ccc(-c2ccc3ncnc(Nc4ccc(OCc5cccc(F)c5)c(Cl)c4)c3c2)o1 [Compound 3, N-(4-(3-fluorobenzyloxy)-3-chlorophenyl)-6-(5-((2-(methylthio)ethylamino)methyl)-2-furyl)-quinazolin-4-amine] | 34.6 | 56.2 | 24.9 | 23.4 | 84.6 | 143.01 | 4 | 75 | 334.8 | 0 | RTV (relative tumor volume) ([5]; 50 mg/kg intragastrically): 6.9; Rate of tumor inhibition d21 (%) ([5]; 50 mg/kg intragastrically): 32%; d21 Vave (tumor volume) ([5]; 50 mg/kg intragastrically): 830.7 mm^3; Animal number in each group: Partial regression ([5]; 50 mg/kg intragastrically): 0; RTV (relative tumor volume) ([5]; 100 mg/kg intragastrically): 6.5; Rate of tumor inhibition d21 (%) ([5]; 100 mg/kg intragastrically): 36%; d21 Vave (tumor volume) ([5]; 100 mg/kg intragastrically): 778.6 mm^3; Animal number in each group: Partial regression ([5]; 100 mg/kg intragastrically): 0; RTV (relative tumor volume) ([5]; 200 mg/kg intragastrically): 4.4; Rate of tumor inhibition d21 (%) ([5]; 200 mg/kg intragastrically): 56%; d21 Vave (tumor volume) ([5]; 200 mg/kg intragastrically): 612.6 mm^3; Animal number in each group: Partial regression ([5]; 200 mg/kg intragastrically): 0; RTV (relative tumor volume) [8]: 0.743; RTV (relative tumor volume) [9]: 2.7
CS(=O)(=O)NCCNCc1ccc(-c2ccc3ncnc(Nc4ccc(OCc5cccc(F)c5)c(Cl)c4)c3c2)o1 [Compound 4, N-(4-(3-fluorobenzyloxy)-3-chlorophenyl)-6-(5-((2-(methylsulfonamido)ethylamino)methyl)-2-furyl)-quinazolin-4-amine] | 7.06 | 15.5 |  |  |  |  |  |  |  |  | 
O=S(=O)(CCNCc1ccc(-c2ccc3ncnc(Nc4ccc(OCc5cccc(F)c5)c(Cl)c4)c3c2)o1)CC(F)(F)F [Compound 5, N-(4-(3-fluorobenzyloxy)-3-chlorophenyl)-6-(5-((2-(2,2,2-trifluoroethylsulfonyl)ethylamino)methyl)-2-furyl)-quinazolin-4-amine] | 8.08 | 14.6 | 33.7 | 18.8 | 46.8 | 414.78 | 1 | 45 | 770.9 | 0 | RTV (relative tumor volume) [8]: 2.574; RTV (relative tumor volume) [9]: 5.8
O=S(=O)(CCNCc1ccc(-c2ccc3ncnc(Nc4ccc(OCc5cccc(F)c5)c(Cl)c4)c3c2)o1)C(F)(F)F [Compound 6, N-(4-(3-fluorobenzyloxy)-3-chlorophenyl)-6-(5-((2-(trifluoromethylsulfonyl)ethylamino)methyl)-2-furyl)-quinazolin-4-amine] | 25.6 | 32.4 | 54.6 | 49.7 |  |  |  |  |  |  | 
CS(=O)(=O)CCNCc1ccc(-c2ccc3ncnc(Nc4ccc(OCc5cccc(F)c5)c(Cl)c4)c3c2)o1 [Compound 61, N-(4-(3-fluorobenzyloxy)-3-chlorophenyl)-6-(5-((2-(methylsulfonyl)ethylamino)methyl)-2-furyl)-quinazolin-4-amine, reference compound] |  |  |  |  | 89.8 | 106.20 | 5 | 79 | 291.0 | 1 | Rate of tumor inhibition d21 (%) ([5]; 200 mg/kg intragastrically): 75%; d21 Vave (tumor volume) ([5]; 200 mg/kg intragastrically): 350.1 mm^3; Animal number in each group: Partial regression ([5]; 200 mg/kg intragastrically): 0; biological activity results in the same test (in words) ([6]; same test as Table 1 (cell proliferation inhibition, N87 and BT474), comparison in words): close to those of compound 6; AUC0-t ± SD [4]: 26908 ± 9085 ng·h/mL; AUC0-∞ ± SD [4]: 26921 ± 9092 ng·h/mL; Cmax ± SD [4]: 3902 ± 1208 ng/mL; MRT ± SD [4]: 5.52 ± 0.90 h; T1/2 ± SD [4]: 1.91 ± 0.45 h; Tmax ± SD [4]: 2.5 ± 0.6 h
